The record followed here is paper PMC11725581, “Developing novel Lin28 inhibitors by computer aided drug design” (Cell Death Discovery, 2025).

“Also recorded” adds a separate entry of the source.

What all share (type): cell-based
One test deals with Du145 spheroids. Briefly: Du145 spheroid growth. The settings on record: 0-192 h. From the text: (§1) To further evaluate whether the suppressive effects of Ln268 are specific to Lin28-positive cancer cells, we compared cell growth rates of DuNE (Lin28b-positive line) and Du145 (Lin28b-negative line), both of which are Lin28a-negative. DuNE has the same genomic background with Du145 except for the transduction of the SRRM4 gene. […] Furthermore, Ln268 had no impact on the cell growth of DuNE(KO) cells, in which the Lin28b gene was knocked out by CRISPR (Fig. 5C). […] We also tested several ovarian and endometrial cancer cell lines with different Lin28a and Lin28b expression profiles (Fig. 5E).
(§2) For a spheroid generation, 1000 cells/well were seeded in 96-well ULA round-bottomed plates (Corning, Amsterdam) using a multichannel pipette. 3D multicellular spheroids were spontaneously generated after 24 h culture. Plates were incubated for 6 days at 37 °C, 5% CO2, and 95% humidity. DuNE and Du145 cells were cultured in DMEM with 10% FBS. Fully automated image analysis of tumor spheroids was carried out with the Incucyte® S3 Live-Cell Analysis System. The size and shape of multicellular spheroids were analyzed by using the Incucyte® Spheroid Analysis Software Module.

For the next test, the system named is ES-2 cells. The test is described as follows: Cell proliferation (Incucyte), ES-2. The settings on record: Lin28a/Lin28b-negative.
Description: as §1

The test system of another test is DuNE cells. Briefly: Cell cycle analysis by FACS, DuNE cells. The settings on record: 0-20 μM, 144 h. The text has this: To further compare the potency of Ln268 with C1632 and Ln15 in suppressing DuNE cell growth, we also measured cell growth rates under […] conditions (Fig. 4E). […] In addition, we used FACS assays to confirm that Ln268-mediated cell growth inhibition was due to its effects on blocking cancer cell cycling from the G1 phase towards the S and M phases (Fig. 4F). […] In summary, we confirmed that Ln268 is a potent Lin28 inhibitor that blocks the CSC phenotype of cancer cells, suppresses formation of 3D colonies, and inhibits cancer cell proliferation.

The subject of a further test is HEC50 cells. The test is described as follows: Cell proliferation (Incucyte), HEC50. The conditions noted are these: Lin28a/Lin28b-negative.
Description: as §1

In test [1] the test system is Lin28b protein expression in DuNE cells. Briefly: Lin28b protein levels by immunoblotting in DuNE cells. The conditions noted are these: 20uM, 72 h. How it is done:
We further tested whether the 13 candidate compounds could penetrate the cell membrane, endure cell-mediated metabolism and excretion, and inhibit Lin28 activities inside cancer cells. […] Since let-7 and Lin28b mutually regulate each other’s expression, increased let-7 expression by Lin28 inhibitors would suppress Lin28b protein levels.
Fig. 3 Validate CADD predicted compounds by cell-based assays. A, B DuNE cells were treated with Lin28b inhibitors for 72 h. Let-7d RNA levels were measured by real-time qPCR (A) and Lin28b protein levels were measured by immunoblotting (B). […] Cell proliferation rates were measured by Incucyte. D Overlay of 1H-15N HSQC spectra for Lin28b-ZKD (black), Lin28b-ZKD + Ln15 (orange), and Lin28b-ZKD + Ln268 (blue). Ligands were added in a 20:1 molar ratio. Approximately 20 residues are seen to shift (from black to orange/blue), with ca. 5 resonances disappearing for Lin28b-ZKD in the presence of Ln268. E Overlay of the 20 NMR models for 2CQF (gray) and 2LI8 (blue) showing the rearrangement of residues 137–160 in going from Lin28b-ZKD alone to the conformation with RNA present. The conformation of Lin28b-ZKD in the presence of the ligands described herein might resemble that of 2LI8, but with a larger conformational spread. All results are presented as the mean ± SD.
Total RNA was extracted by TRIZOL reagent (Invitrogen), treated with deoxyribonuclease and reversely transcribed by random hexamers and superscript II (Invitrogen). Real-time qPCR was performed on the ABI PRISM 7900 HT system (Applied Biosystems) using the FastStart Universal SYBR Green Master mix (Roche) following standard protocol as we reported. All real-time qPCR assays were carried out in triplicates from three independent cDNA syntheses. For immunoblotting assays, whole cell lysis was extracted by a buffer containing 50mM of Tris pH8.0, 150mM of NaCl, 1% NP40, 0.5% sodium deoxycholate, 0.1% SDS and proteinase and phosphatase inhibitors (Roche). Protein lysis separated by SDS-PAGE, transferred to polyvinylidene difluoride membrane, and blotted by specific antibodies.

The next test deals with DuNE spheroids. Briefly: DuNE 3D spheroid growth (Incucyte).
Description: CSCs have characteristic tumorigenic, self-renewal, and differentiation properties. The self-renewal ability is hijacked by CSCs that makes them both tumorigenic and capable of sustaining long-term tumor growth, which can be evaluated by 3D spheroid and colony formation assays. We established a DuNE spheroid model in which DuNE cells formed 3D spheroids in 96-well plates (Figure S3). By integrating this 3D culture with the Incucyte live-cell imaging system, we quantified the sizes of the spheroid growth over 0–6 days to generate a spheroid growth curve. Using this model system, we treated the DuNE spheroids with increasing doses (0–100 μM) of C1632, Ln15, and Ln268 for 0–6 days. […] In addition, classic colony formation assays were used to measure the stemness in the DuNE model. Colony formation counts, which were ~50 under vehicle treatment after 14 days, decreased by 22% in C1632-treated plates, and by 75% and 96% in the Ln15 and Ln268 treated plates, respectively (Fig. 4D).
as §2

Another test deals with VOA1066 cells. The test is described as follows: Cell proliferation (Incucyte), VOA1066.
Description: as §1

For the compound `O=c1[nH]c(Nc2ccc(F)cc2O)cs1` [Ln268], in the test with Du145 spheroids, the “effect on Du145 spheroids” value is given as “no effect”. The “effect on growth of ES-2 cells” value in the test on ES-2 cells was “no or minimal impacts”. For the same compound, in the test on DuNE cells, the “cell cycle effect (FACS)” value is reported as “arrested in G2/M in a dose-dependent manner”. Moreover, the “effect on growth of HEC50 cells” value in the test on HEC50 cells was “no or minimal impacts”. Besides, the “effect on Lin28b protein expression” value in test [1] was “suppressed Lin28b protein expression”. Besides, in the test with DuNE spheroids, the “effect on DuNE spheroid growth” value is given as “strongest potency among all 13 candidate compounds; also recorded: efficiently blocked DuNE spheroid growth in a time-dependent manner”, the “potency improvement over parent compound Ln15 (spheroid growth)” value is recorded as ~ 2 fold and the “potency relative to C1632 (spheroid growth)” value is reported as “approximately 10 fold”. For the same compound, in the test with DuNE spheroids (0-100 μM, 0-6 days, read-out: concentration to achieve 50% spheroid growth inhibition), the IC50 worked out at 10 µM. In addition, the “effect on growth of VOA1066 cells” value in the test with VOA1066 cells (Lin28a/Lin28b-positive) is reported as “suppressed the growth”. This compound also had an IC50 in the test with VOA1066 cells (cells express both Lin28a and Lin28b at relatively high levels) of 0.4 µM.
